Data reported in patent publication US11779600B2, “Methods of treating or preventing alzheimer's disease and associated conditions” (CEDARS-SINAI MEDICAL CENTER, priority 2016, dated 2023).

System: ADtg mice
Experiment: Pre- and post-synaptic density in brains of AD+ mice after immune modulation
Format: in vivo, mouse
Conditions: 13m old AD+ mice (FIG. 3E)
Procedure: ADtg mice (10 months old) received subcutaneous injections of GA [also known as Cop-1 and Copaxone®; 100 μg in phosphate-buffered saline (PBS)] or PBS alone (control group) twice a week for 1 week and then once a week for 8 weeks. For evaluation of innate immune infiltration to the brain by flow cytometry, 10-month-old ADtg mice received subcutaneous injections of GA ([…]) or PBS alone twice a week for 1 week and then once a week for 3 weeks. At the end of the study, all mice were anaesthetized and then perfused with ice-cold PBS with 0.5 mM EDTA, after which their organs were collected and analyzed or fixed in 2.5% paraformaldehyde (Sigma-Aldrich), and cryoprotected with 30% sucrose for further histological analysis. […]
To define the synaptic area in the hippocampus of ADtg and non-transgenic (wild-type) mice, three independent coronal brain sections at bregma −2.50 , −2.65, and −2.80 mm (Liang et al., 2011) per animal (n=6 mice per group) were stained with the presynaptic marker VGluT1 (encoded by Slc17a7) (Chemicon, guinea pig, 1:6000). […] Single optical section images were analyzed using the NIH ImageJ macro and batch process to quantify the synaptic area (15 optical sections/field, 15 fields/brain section, and 675 total images/brain). The average synaptic area or percentage of the area per image was calculated for each condition. […]

glatiramer acetate [GA]
synaptic rescue (pre- and post-synaptic areas): remarkable synaptic rescue
